Patent US4370266A, “Mycoplanecin derivatives and their preparation” (Sankyo Company, Limited, priority 1980, dated 1983)
In brackets after ≈: the same amount, converted by molar mass. Read-outs that look alike come from different tables or passages of the source. Numbered stars: 1 amine (or outer) side, 2 acyl side, 3 side chain; on linkers, the order of the positions; unused ones are H or OH. Bridge positions count the residues as written; N and C are the ends. Square brackets hold non-standard residues; d marks the D form. Peptide text beside a SMILES is read from it. * marks the point of attachment. ξ: configuration not given here. X1 = CCC1CC(C(=O)[*:2])N([*:1])C1; Butanoyl(2-oxo) = CCC(=O)C(=O)*; NMeAhp(2) = CCCCC[CH](NC)C(=O)O; ξPro(4ξ-Me) = CC1CNC(C(=O)O)C1; NMeT = CN[CH](C(=O)O)[CH](C)O; NMeL = CN[CH](CC(C)C)C(=O)O; hLeu = CC(C)CC[CH](N)C(=O)O; NMeV = CN[CH](C(=O)O)C(C)C; X2 = CCC(O)C(=O)*

Key:
[1] = system: Mycobacterium smegmatis ATCC 607; assay: Minimal inhibitory concentration (MIC), Mycobacterium smegmatis ATCC 607; conditions: Mycolicibacterium smegmatis, ATCC607, 168 h
[2] = system: microorganisms of the genus Mycobacterium; conditions: earlier applications on Mycoplanecin A; cited from earlier work
[3] = system: Xanthomonas oryzae SANK 70274; assay: microbe, parasite or virus in culture; format: cell-based; conditions: SANK70274, 72 h
Solubility = conditions: for Solubility: soluble in: organic solvents; for Solubility: insoluble in: water and, where named, other solvents
Proteus mirabilis 1331 = assay: MIC, Proteus mirabilis 1331; conditions: Proteus mirabilis, 1331, 24 h
Proteus vulgaris OX19 = assay: MIC, Proteus vulgaris OX19; conditions: OX19, 24 h
[4] = system: Trichophyton mentagrophytes SANK 22374; assay: MIC, Trichophyton mentagrophytes SANK 22374; format: cell-based
[5] = system: Pseudomonas aeruginosa SANK 73860; assay: MIC, Pseudomonas aeruginosa SANK 73860; conditions: SANK73860, 24 h
Micrococcus luteus = assay: MIC, Micrococcus luteus; conditions: 24 h
[6] = system: Klebsiella pneumoniae PCI 602; assay: MIC, Klebsiella pneumoniae PCI 602; conditions: PCI602, 24 h
[7] = system: Piricularia oryzae SANK 16975; assay: microbe, parasite or virus in culture; format: cell-based; conditions: 48 h
[8] = system: Staphylococcus aureus 209P JC-1; assay: MIC, Staphylococcus aureus 209P JC-1; conditions: 24 h
[9] = system: Escherichia coli NIHJ JC-2; assay: MIC, Escherichia coli NIHJ JC-2; conditions: NIHJJC2, 24 h
[10] = system: Bacillus subtilis PCI 219; assay: MIC, Bacillus subtilis PCI 219; conditions: PCI219, 24 h
[11] = system: Aspergillus oryzae SANK 11262; assay: MIC, Aspergillus oryzae SANK 11262; format: cell-based
[12] = system: Penicillium chrysogenum SANK 12768; assay: MIC, Penicillium chrysogenum SANK 12768; format: cell-based
Candida albicans Yu 1200 = assay: MIC, Candida albicans Yu 1200; format: cell-based

CCCCCC1C(=O)NCC(=O)OC(C)C(N(C)C(=O)C2CC(CC)CN2C(=O)C(C(C)C)N(C)C(=O)C(O)CC)C(=O)NC(CC(C)C)C(=O)N2CC(C)CC2C(=O)NC(CCC(C)C)C(=O)N(C)C(C(C)C)C(=O)N2CCCC2C(=O)N1C (stereo not drawn) [Compound (IIIa)] (X2-[NMeV][X1][NMeT]L[ξPro(4ξ-Me)][hLeu][NMeV]P[NMeAhp(2)]G; ester 3-C; configuration not given here)
MIC [1]: 0.05 mg/L (≈ 0.0417 µM)

CCCCCC1C(=O)NCC(=O)OC(C)C(N(C)C(=O)C2CC(CC)CN2)C(=O)NC(CC(C)C)C(=O)N2CC(C)CC2C(=O)NC(CCC(C)C)C(=O)N(C)C(C(C)C)C(=O)N2CCCC2C(=O)N1C (stereo not drawn) [Compound (IIIb)] (H-[X1][NMeT]L[ξPro(4ξ-Me)][hLeu][NMeV]P[NMeAhp(2)]G; ester 2-C; configuration not given here)
MIC [1]: 6.25 mg/L (≈ 6.25 µM)

CCC(O)C(=O)N(C)C(C(=O)N1CC(C)CC1C(=O)N(C)C1C(=O)NC(CC(C)C)C(=O)N2CC(C)CC2C(=O)NC(CCC(C)C)C(=O)N(C)C(C(C)C)C(=O)N2CCCC2C(=O)N(C)C(CC(C)C)C(=O)NCC(=O)OC1C)C(C)C (stereo not drawn) [Compound (IIa)]
MIC [1]: 0.05 mg/L (≈ 0.0427 µM)

CC(C)CCC1NC(=O)C2CC(C)CN2C(=O)C(CC(C)C)NC(=O)C(N(C)C(=O)C2CC(C)CN2)C(C)OC(=O)CNC(=O)C(CC(C)C)N(C)C(=O)C2CCCN2C(=O)C(C(C)C)N(C)C1=O (stereo not drawn) [Compound (IIb)]
MIC [1]: 6.25 mg/L (≈ 6.43 µM)

CCC(=O)C(=O)N(C)C(C(=O)N1CC(CC)CC1C(=O)N(C)C1C(=O)NC(CC(C)C)C(=O)N2CC(C)CC2C(=O)NC(CCC(C)C)C(=O)N(C)C(C(C)C)C(=O)N2CCCC2C(=O)N(C)C(CC(C)C)C(=O)NCC(=O)OC1C)C(C)C (stereo not drawn) [Mycoplanecin A] ({Butanoyl(2-oxo)}-[NMeV][X1][NMeT]L[ξPro(4ξ-Me)][hLeu][NMeV]P[NMeL]G; ester 3-C; configuration not given here)
antibacterial activity [2]: antibacterial activity, especially against microorganisms of the genus Mycobacterium

CCC(=O)C(=O)N(C)C(C(=O)N1CC(C)CC1C(=O)N(C)C1C(=O)NC(CC(C)C)C(=O)N2CC(C)CC2C(=O)NC(CCC(C)C)C(=O)N(C)C(C(C)C)C(=O)N2CCCC2C(=O)N(C)C(CC(C)C)C(=O)NCC(=O)OC1C)C(C)C (stereo not drawn) [Mycoplanecin B]
MIC ([3]; read-out: MIC): 12.5 mg/L (≈ 10.7 µM) | Solubility: soluble in (Solubility): Soluble in methanol, ethanol, ethyl acetate, acetone and chloroform | Solubility: insoluble in (Solubility): Insoluble in water | MIC (Proteus mirabilis 1331): > 400 mg/L | MIC (Proteus vulgaris OX19): > 400 mg/L | MIC ([4]; SANK22374, 48 h): > 400 mg/L | MIC [5]: > 400 mg/L | MIC [1]: 0.05 mg/L (≈ 0.0428 µM) | MIC (Micrococcus luteus): 0.0125 mg/L (≈ 0.0107 µM) | MIC [6]: > 400 mg/L | MIC [7]: > 400 mg/L | MIC [8]: > 400 mg/L | MIC [9]: > 400 mg/L | MIC [10]: > 400 mg/L | MIC ([11]; SANK11262, 48 h): > 400 mg/L | MIC ([12]; SANK12768, 48 h): > 400 mg/L | MIC (Candida albicans Yu 1200; YU1200, 48 h): > 400 mg/L

CCCCCC1C(=O)NCC(=O)OC(C)C(N(C)C(=O)C2CC(CC)CN2C(=O)C(C(C)C)N(C)C(=O)C(=O)CC)C(=O)NC(CC(C)C)C(=O)N2CC(C)CC2C(=O)NC(CCC(C)C)C(=O)N(C)C(C(C)C)C(=O)N2CCCC2C(=O)N1C (stereo not drawn) [Mycoplanecin C] ({Butanoyl(2-oxo)}-[NMeV][X1][NMeT]L[ξPro(4ξ-Me)][hLeu][NMeV]P[NMeAhp(2)]G; ester 3-C; configuration not given here)
MIC [3]: 12.5 mg/L (≈ 10.4 µM) | Solubility: soluble in (Solubility): Soluble in methanol, ethanol, ethyl acetate, acetone and chloroform | Solubility: insoluble in (Solubility): Insoluble in water | MIC (Proteus mirabilis 1331): > 400 mg/L | MIC (Proteus vulgaris OX19): > 400 mg/L | MIC ([4]; SANK22374, medium S: 48 hours at 26° C. in Sabouraud's agar, read-out: MIC): > 400 mg/L | MIC [5]: > 400 mg/L | MIC [1]: 0.05 mg/L (≈ 0.0418 µM) | MIC (Micrococcus luteus): 0.0125 mg/L (≈ 0.0104 µM) | MIC [6]: > 400 mg/L | MIC [7]: > 400 mg/L | MIC [8]: > 400 mg/L | MIC [9]: > 400 mg/L | MIC [10]: > 400 mg/L | MIC ([11]; SANK11262, medium S: 48 hours at 26° C. in Sabouraud's agar, read-out: MIC): > 400 mg/L | MIC ([12]; SANK12768, medium S: 48 hours at 26° C. in Sabouraud's agar, read-out: MIC): > 400 mg/L | MIC (Candida albicans Yu 1200; YU1200, medium S: 48 hours at 26° C. in Sabouraud's agar, read-out: MIC): > 400 mg/L
